Measurements: PMC11466185, “Mechanisms and efficacy of small molecule latency-promoting agents to inhibit HIV reactivation ex vivo” (JCI Insight, 2024)
Several values for one entry are separate records, joined by “and”; a condition that tells them apart may be missing. Equal values may be shown once.

System: HIV transcripts (TAR, LLTR, Pol, PolyA, TatRev)
Experiment: Cell-associated HIV transcripts (RT-ddPCR) 6 days after anti-CD3/CD28 activation of PBMCs from ART-suppressed PWH
Assay type: cell-based
Conditions: for LLTR HIV transcripts (DMSO αCD3/28 = 100): 6 days after αCD3/28 activation, each column one participant; for Pol / PolyA / TAR / TatRev: DMSO αCD3/28 = 100, Fig 4A; for LLTR/TAR / PolyA/LLTR / TatRev/PolyA: DMSO+CD3/28 = 1, Fig 4B, C and D
Method: Next, we evaluated the ability of the candidate LPAs to sustain the inhibitory effects during a prolonged ex vivo culture. To this end, PBMCs were cultured in the presence of individual drugs in DMSO or in DMSO alone as control, activated (anti-CD3/CD28), and harvested after 6 days. […] However, we decided to test the drug on day 6 because extra cells were available from some study participants.
Each drug was tested in PBMCs from at least 6 ART-suppressed study participants (except for KRIBB11, n = 5). PBMCs were aliquoted into wells at 6 × 10^6 cells/well. After activation, the cells were cultured with antiretrovirals in the presence of individual drugs in DMSO or DMSO alone as control. All conditions were tested in the presence of CD3/28 T cell–activating beads, except for the unactivated DMSO condition. After 6 days, total cellular RNA was extracted, and the progression through different stages of HIV transcription was quantified by measuring the levels of initiated (TAR), 5′ elongated (LLTR), midtranscribed/unspliced (Pol), completed (PolyA), and multiply spliced (TatRev) HIV transcripts. (A) The levels of all HIV transcripts were normalized to 1 μg of total cellular RNA and expressed as a percentage of the activated DMSO control (% of activated DMSO). Medians are shown as well as the individual values per study participant in different colors. (B–D) The effect of each drug on HIV transcriptional progression after activation was analyzed by the ratio of one HIV transcript to another. Ratios are independent of HIV infection frequency or normalization to cell numbers. Shown are the proportion of (B) all HIV transcripts that are elongated (LLTR/TAR), (C) elongated HIV transcripts that are completed (PolyA/LLTR), and (D) completed transcripts that are multiply spliced (TatRev/PolyA). Medians and IQR are presented, along with the individual values per study participant in different colors. P values were calculated using Wilcoxon’s signed-rank test: *P < 0.05.
PBMCs were isolated from fresh venous blood from 16 ART-suppressed HIV-infected study participants using Ficoll density gradient centrifugation. The cells were seeded at 6 × 10^6 cells/well and cultured with antiretrovirals (nevirapine and indinavir) to prevent new infection. On the next day, PBMCs were activated with anti-CD3/CD28–coated beads (Invitrogen) in the presence of 20 U/mL IL-2 and individual drugs in DMSO or DMSO alone as a control. Since we were limited in the PBMC yield per study participant, different study participants were used for different experiments (such as the initial screen, dose response, different time points, and studies in activated vs. unstimulated cells). In addition, the yields of PBMCs were sometimes insufficient to test all drugs for a given question or experiment.
For quantification of cell-associated HIV transcripts, PBMCs were harvested either after 24 hours or after 6 days. The cell viabilities were measured by trypan blue staining; then the cells were pelleted by centrifuging at 300g for 6 minutes and stored at –80°C. For quantification of virion-associated HIV RNA, cell culture supernatant was collected from 6 × 10^6 PBMCs that were treated and activated for 6 days as described above. Residual cells and cellular debris were subsequently removed from the supernatant by differential centrifugation (300g for 6 minutes, then 20,000g for 10 minutes), and the supernatant was stored at –80°C.
Total cellular DNA and RNA were extracted in parallel using Trireagent (Molecular Research Center) according to the manufacturer’s instructions, except for study participants 2147 and 2461 (Figure 4), for whom DNA and RNA were extracted using the QIAGEN AllPrep DNA/RNA/miRNA Universal Kit with on-column DNase I treatment of the RNA and the manufacturer’s modification to enhance recovery of short transcripts.

## CO[C@H]([C@@H](C)[C@H]1O[C@]1(C)C[C@H](C)/C=C/C=C(\C)[C@H]1O[C@@H](CC(=O)O)CC[C@@H]1C)[C@@H](C)O [herboxidiene]
5nM
  LLTR HIV transcripts (DMSO αCD3/28 = 100): 64.2 and 58.48 and 54.61 and 276.32 and 371.71 and 49.79 and 55 and 16.86
Participant 150b
  Pol: 43.29
  PolyA: 23.53
  TAR: 92.09
  TatRev: 2.69
  LLTR/TAR: 0.5407
  PolyA/LLTR: 0.4726
  TatRev/PolyA: 0.11
Participant 1379
  Pol: 47.94
  PolyA: 28.08
  TAR: 40.01
  TatRev: 171.43
  LLTR/TAR: 1.462
  PolyA/LLTR: 0.4801
  TatRev/PolyA: 6.105
Participant 2027
  Pol: 133.33
  PolyA: 36.92
  TAR: 82.42
  TatRev: 0
  LLTR/TAR: 0.6673
  PolyA/LLTR: 0.6713
Participant 2147a
  Pol: 105.88
  PolyA: 21.76
  TAR: 362.23
  TatRev: 28.42
  LLTR/TAR: 0.1772
  PolyA/LLTR: 0.339
  TatRev/PolyA: 0.3013
Participant 2161
  Pol: 169.45
  PolyA: 268.67
  TAR: 215.96
  TatRev: 176.87
  LLTR/TAR: 1.7212
  PolyA/LLTR: 0.72
  TatRev/PolyA: 0.6583
Participant 2256
  Pol: 18.46
  PolyA: 16.27
  TAR: 31.94
  TatRev: 1.4
  LLTR/TAR: 0.5278
  PolyA/LLTR: 0.9648
Participant 2461
  PolyA: 1692.31
  TAR: 52.19
  LLTR/TAR: 5.294
  PolyA/LLTR: 6.125
Participant 2747
  LLTR/TAR: 0
Participant 5557
  Pol: 23.16
  PolyA: 23.33
  TAR: 83.93
  TatRev: 0
  LLTR/TAR: 0.6507
  PolyA/LLTR: 0.4272

## N#CC[C@H](C1CCCC1)n1cc(-c2ncnc3[nH]ccc23)cn1 [ruxolitinib]
Participant 150b
  LLTR/TAR: 0.6749
  PolyA/LLTR: 0.4135
  TatRev/PolyA: 0.45
Participant 2027
  LLTR/TAR: 0.1463
  PolyA/LLTR: 0.4929
  TatRev/PolyA: 0
Participant 2147a
  LLTR/TAR: 0.473
  PolyA/LLTR: 0.2896
  TatRev/PolyA: 0
Participant 2161
  LLTR/TAR: 2.396
  PolyA/LLTR: 0.46
  TatRev/PolyA: 0
Participant 2461
  LLTR/TAR: 3.402
  PolyA/LLTR: 0
Participant 2747
  LLTR/TAR: 0.4032
  PolyA/LLTR: 1.05
  TatRev/PolyA: 0
Participant 2750
  LLTR/TAR: 1.117
  PolyA/LLTR: 1.35
  TatRev/PolyA: 1.555

## mithramycin A
Participant 150b
  LLTR/TAR: 3.173
  PolyA/LLTR: 0.3062
  TatRev/PolyA: 1.15
Participant 1379
  LLTR/TAR: 7.408
  PolyA/LLTR: 0.07562
  TatRev/PolyA: 0
Participant 1713
  LLTR/TAR: 1.88
  PolyA/LLTR: 1.25
  TatRev/PolyA: 0
Participant 2147b
  LLTR/TAR: 0.4766
  PolyA/LLTR: 0.7007
  TatRev/PolyA: 0
Participant 2256
  LLTR/TAR: 1.969
  PolyA/LLTR: 0
Participant 2750
  LLTR/TAR: 4.292
  PolyA/LLTR: 1.638
  TatRev/PolyA: 0.3964
Participant 5557
  LLTR/TAR: 0.2056
  PolyA/LLTR: 46.0561
  TatRev/PolyA: 3.456

## pladienolide B
10nM
  LLTR HIV transcripts (DMSO αCD3/28 = 100): 48.15 and 112.06 and 64.44 and 97.37 and 80.45 and 82.86
Participant 2027
  Pol: 56.14
  PolyA: 45.13
  TAR: 270.3
  TatRev: 0
  LLTR/TAR: 0.3065
  PolyA/LLTR: 0.5447
  TatRev/PolyA: 0
Participant 2147a
  Pol: 74.51
  PolyA: 38.34
  TAR: 177.4
  TatRev: 22.95
  LLTR/TAR: 0.2714
  PolyA/LLTR: 0.7963
  TatRev/PolyA: 0.342
Participant 2161
  Pol: 44.19
  PolyA: 152.38
  TAR: 52.78
  TatRev: 381.82
  LLTR/TAR: 1.5241
  PolyA/LLTR: 1.89
  TatRev/PolyA: 2.506
Participant 2461
  PolyA: 53.85
  TAR: 91.45
  LLTR/TAR: 1.065
  PolyA/LLTR: 0.553
Participant 2747
  Pol: 21.03
  PolyA: 65.33
  TAR: 95.91
  TatRev: 0
  TatRev/PolyA: 0
Participant 2750
  Pol: 212.24
  PolyA: 74.85
  TAR: 108.21
  TatRev: 155
  LLTR/TAR: 1.036
  PolyA/LLTR: 0.668
  TatRev/PolyA: 2.0707

## CC(=O)N[C@@H]1CCC[C@H](C(=O)Nc2cc(-c3cnn4c3CC(C)(C)C4)c(Cl)cn2)C1 [AZD4573]
Participant 2027
  LLTR/TAR: 0.3501
  PolyA/LLTR: 0.2124
  TatRev/PolyA: 0
Participant 2147a
  LLTR/TAR: 0.6972
  PolyA/LLTR: 0.4073
  TatRev/PolyA: 0.2876
Participant 2161
  LLTR/TAR: 0.7137
  PolyA/LLTR: 1.39
  TatRev/PolyA: 0
Participant 2461
  LLTR/TAR: 1.973
  PolyA/LLTR: 0.4151
Participant 2747
  PolyA/LLTR: 0.4425
Participant 2750
  LLTR/TAR: 0.6631
  PolyA/LLTR: 1.188
  TatRev/PolyA: 0.2617

## CN1CC[C@H](c2c(O)cc(O)c3c(=O)cc(-c4ccccc4Cl)oc23)[C@H](O)C1 [alvocidib]
Participant 150b
  LLTR/TAR: 0.5959
  PolyA/LLTR: 1.023
  TatRev/PolyA: 0.12
Participant 1379
  LLTR/TAR: 0.8323
  PolyA/LLTR: 0.9327
Participant 2027
  LLTR/TAR: 0.4309
  PolyA/LLTR: 0.9713
  TatRev/PolyA: 0.1413
Participant 2147a
  LLTR/TAR: 0.3521
  PolyA/LLTR: 0.4486
  TatRev/PolyA: 0.2041
Participant 2161
  LLTR/TAR: 1.064
  PolyA/LLTR: 0.55
Participant 2256
  LLTR/TAR: 0.6179
  PolyA/LLTR: 0.6868
  TatRev/PolyA: 0.617
Participant 2461
  LLTR/TAR: 1.513
  PolyA/LLTR: 1.443
Participant 2747
  LLTR/TAR: 0
Participant 5557
  LLTR/TAR: 0.4901
  PolyA/LLTR: 0.9442
